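Results reflect a 48-hour exposure of cells in 96-well plates to compound at five concentrations. GI50 = concentration required for 50% inhibition of growth. At the TGI there is no net growth.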
Assays:
Test in all cases: inhibition of tumour cell growth, NCI panel, 48 h
RPMI-8226 leukemia = system: RPMI-8226 leukemia
HCT-15 colon = system: HCT-15 colon
OVCAR-4 ovarian = system: OVCAR-4 ovarian
HCC-2998 colon = system: HCC-2998 colon
K-562 leukemia = system: K-562 leukemia
SF-295 CNS = system: SF-295 CNS
HOP-92 NSCLC = system: HOP-92 NSCLC
HT29 colon = system: HT29 colon
SF-539 CNS = system: SF-539 CNS
HL-60(TB) leukemia = system: HL-60(TB) leukemia
UACC-257 melanoma = system: UACC-257 melanoma
MDA-MB-231 breast = system: MDA-MB-231 breast
PC-3 prostate = system: PC-3 prostate
HCT-116 colon = system: HCT-116 colon
BT-549 breast = system: BT-549 breast
MDA-MB-435 = system: MDA-MB-435
SN12C renal = system: SN12C renal
SF-268 CNS = system: SF-268 CNS
NCI-H460 lung = system: NCI-H460 lung
IGROV1 ovarian = system: IGROV1 ovarian
EKVX NSCLC = system: EKVX NSCLC
OVCAR-5 ovarian = system: OVCAR-5 ovarian
NCI-H522 lung = system: NCI-H522 lung
SW-620 colon = system: SW-620 colon
HS 578T breast = system: HS 578T breast
SK-OV-3 ovarian = system: SK-OV-3 ovarian
UACC-62 melanoma = system: UACC-62 melanoma
SNB-19 CNS = system: SNB-19 CNS
SK-MEL-28 melanoma = system: SK-MEL-28 melanoma

Nc1ccc(C(=O)c2ccc(N)c(Br)c2)cc1Br
TGI (RPMI-8226 leukemia): 3730 nM
GI50 (HCT-15 colon): 466 nM
TGI (HCT-15 colon): > 100000 nM
GI50 (OVCAR-4 ovarian): 6240 nM
TGI (OVCAR-4 ovarian): > 100000 nM
GI50 (HCC-2998 colon): 381 nM
TGI (HCC-2998 colon): 4650 nM
GI50 (K-562 leukemia): 271 nM
TGI (K-562 leukemia): 22200 nM
GI50 (SF-295 CNS): 228 nM
TGI (SF-295 CNS): 664 nM
GI50 (HOP-92 NSCLC): 299 nM
TGI (HOP-92 NSCLC): 5900 nM
GI50 (HT29 colon): 335 nM
TGI (HT29 colon): 1180 nM
GI50 (SF-539 CNS): 296 nM
TGI (SF-539 CNS): 3160 nM
GI50 (HL-60(TB) leukemia): 326 nM
TGI (HL-60(TB) leukemia): 2800 nM
GI50 (UACC-257 melanoma): 14400 nM
TGI (UACC-257 melanoma): > 100000 nM
GI50 (MDA-MB-231 breast): 772 nM
TGI (MDA-MB-231 breast): > 47100 nM
GI50 (PC-3 prostate): 392 nM
TGI (PC-3 prostate): > 63400 nM
GI50 (HCT-116 colon): 461 nM
TGI (HCT-116 colon): 11600 nM
GI50 (BT-549 breast): 1840 nM
TGI (BT-549 breast): 18800 nM
GI50 (MDA-MB-435): 207 nM
TGI (MDA-MB-435): 490 nM
GI50 (SN12C renal): 903 nM
TGI (SN12C renal): > 100000 nM
GI50 (SF-268 CNS): 747 nM
TGI (SF-268 CNS): > 53100 nM
GI50 (NCI-H460 lung): 346 nM
TGI (NCI-H460 lung): 5760 nM
GI50 (IGROV1 ovarian): 474 nM
TGI (IGROV1 ovarian): 18400 nM
GI50 (EKVX NSCLC): 536 nM
TGI (EKVX NSCLC): > 100000 nM
GI50 (OVCAR-5 ovarian): 701 nM
TGI (OVCAR-5 ovarian): > 100000 nM
GI50 (NCI-H522 lung): 256 nM
TGI (NCI-H522 lung): 623 nM
GI50 (SW-620 colon): 379 nM
TGI (SW-620 colon): > 100000 nM
GI50 (HS 578T breast): 345 nM
GI50 (SK-OV-3 ovarian): 425 nM
TGI (SK-OV-3 ovarian): 32600 nM
GI50 (UACC-62 melanoma): 645 nM
TGI (UACC-62 melanoma): > 62100 nM
GI50 (SNB-19 CNS): 637 nM
TGI (SNB-19 CNS): > 100000 nM
GI50 (SK-MEL-28 melanoma): 1090 nM
TGI (SK-MEL-28 melanoma): > 100000 nM

Reference: PubChem BioAssay (NCI)
